Test results from patent publication US6737059B1, “Methods of inhibiting inflammatory processes and alleviating symptoms associated with multiple sclerosis” (Board of Regents of the University Washington, priority 1992, dated 2004).
Where “and” joins values, the source holds several entries; their conditions need not be identical. Equal values may be shown once.

Assays:
[1] = test system: white blood cell; assay: WBC counts in blood of EAE animals; type: in vivo, Macaca fascicularis; settings: individual animals
Text: The hematologic hallmarks of untreated EAE are a progressive leukocytosis and lymphopenia prior to the onset of clinical signs. The leukocytosis can represent as much as a four-fold increase in the number of circulating PMNC and no significant changes in the frequency or absolute numbers of monocytes, eosinophils, or basophils. Following successful treatments of EAE, the absolute numbers of lymphocytes and PMNC return, fairly soon after the initiation of treatment, to pre-sensitization levels. Thus, continuous monitoring of blood leukocytes provides a useful measure of disease progression which complements the clinical evaluation and magnetic resonance imaging.
Blood was drawn on a weekly basis until the onset of clinical disease and then more frequently. One-half ml was sent to the hematology laboratory for WBC and differential counts. The results are set out in Table 3 below providing white blood cell number (×10^3) per mm^3 whole blood.
Two Macaca fascicularis monkeys were then involved in a study to preliminarily determine the ability of mAb 23F2G to alleviate EAE symptoms. The EAE induction procedures were essentially as in Example 1. Two animals, Nos. 89161 and 89186, sensitized to 1.0 mg of purified monkey basic protein and developed hyperacute hemorrhagic EAE 18 and 20 days post sensitization, respectively. Animal 89161 died within 12 hours of onset and before treatment with dexamethasone could be initiated. Animal 89186 was treated for a week with both dexamethasone (3 days at 4 mg/kg, 2 days at 2 mg/kg and 2 days at 1 mg/kg) and mAb 23F2G (7 days at 2 mg/kg, i.v.). The animal improved dramatically with complete resolution of paralysis three days after initiation of treatment. Lesions detected by MRI resolved four days after cessation of treatment and the animal improved dramatically with complete resolution of paralysis. Eight days following cessation of treatment, the animal relapsed and was sacrificed. […] The white blood cell count rose from 22.7×10^3 on the day of clinical onset to 82×10^3 /mm^3 on the last day of treatment.

[2] = test system: Experimental Allergic Encephalomyelitis (EAE); assay: EAE in macaques: clinical evaluation and survival; type: in vivo, Macaca fascicularis
Description: Eighteen male monkeys Macaca fascicularis weighing 2-3 kg were sensitized to myelin basic protein (BP) by the intra dermal injection of 0.1 ml of an emulsion containing 5.0 mg of monkey BP and 0.5 mg of heat-killed M. tuberculosis. Each animal was obtained and housed by the Regional Primate Research Center at the University of Washington, Seattle. The Primate Center conforms to the National Institutes of Health Guide for the Care and Use of laboratory Animals. Ten days after sensitization to BP, each animal was outfitted with a femoral catheter and tether to facilitate blood sampling and the administration of treatments or anesthetics for magnetic resonance imaging (MRI). The animals were maintained on intravenous heparin (18 units/hour) to prevent blood clots from forming in the intra venous lines.
The animals were randomly admitted to specific treatment groups before they were sensitized to BP. This was done to schedule MRI and to prevent the severity of clinical signs at the onset from influencing the choice of therapy. Primate Center personnel, responsible for deciding when animals should be treated or sacrificed, were blinded regarding the treatment history of each animal. Table 1 below provides a statement of criteria for determination of clinical signs and grades of EAE in the animals.
At the onset of definite clinical signs (± to +) six EAE animals received a bolus injection of mAb 60.3 (2 mg/kg) and dexamethasone (4 mg/kg). […]. Sever acute EAE occurs in approximately 25 % of animals induced to develop EAE and is caused by edema in areas involving or impinging upon the brain stem or cerebral cortex. Following injection of the bolus, these six animals were treated by continuous infusion of mAb 60.3 (2 mg/kg/day) for seven days. […]. Six control EAE animals were treated only with dexamethasone, following the same protocol outlined above, and six additional controls were treated with continuous infusion of saline.
Animals that improved and/or stabilized as a result of therapy were sacrificed six weeks after the onset of clinical signs. Animals that experienced a clinical relapse (clinical signs ≧++) some time after the cessation of treatment and before six weeks had elapsed, were sacrificed shortly after the onset of the relapse. […] The statistical significance of differences in survival times in each treatment group was determined by two-tailed Student t analysis.
Disease progression was monitored by a combination of clinical evaluation, blood analysis and magnetic resonance imaging. Clinical evaluations were performed twice daily. […]

C[C@@H]1C[C@H]2[C@@H]3CCC4=CC(=O)C=C[C@]4(C)[C@@]3(F)[C@@H](O)C[C@]2(C)[C@@]1(O)C(=O)CO [dexamethasone]
white blood cell number ([1]; Day 2): 3.1 ×10^3 per mm^3 whole blood and 5.4 ×10^3 per mm^3 whole blood
white blood cell number ([1]; Day 4): 3.7 ×10^3 per mm^3 whole blood and 3.6 ×10^3 per mm^3 whole blood
white blood cell number ([1]; Day 7 (end of treatment)): 3.8 ×10^3 per mm^3 whole blood and 7.0 ×10^3 per mm^3 whole blood
white blood cell number ([1]; Day 10): 8.7 ×10^3 per mm^3 whole blood and 10.7 ×10^3 per mm^3 whole blood
white blood cell number ([1]; Day 14): 7.9 ×10^3 per mm^3 whole blood
white blood cell number ([1]; Onset of clinical signs (start of treatment)): 9.6 ×10^3 per mm^3 whole blood and 9.0 ×10^3 per mm^3 whole blood and 14.6 ×10^3 per mm^3 whole blood and 32.2 ×10^3 per mm^3 whole blood and 12.4 ×10^3 per mm^3 whole blood and 16.3 ×10^3 per mm^3 whole blood
white blood cell number ([1]; Presens (baseline before sensitization)): 4.7 ×10^3 per mm^3 whole blood and 6.1 ×10^3 per mm^3 whole blood and 6.7 ×10^3 per mm^3 whole blood and 13.5 ×10^3 per mm^3 whole blood and 8.9 ×10^3 per mm^3 whole blood and 14.1 ×10^3 per mm^3 whole blood
mean survival time ([2]; after onset, group of six EAE macaques): 7 days
survival after onset (range of group) ([2]; group of six EAE macaques): 1 to 17 days
Grade (severity of clinical signs at time of sacrifice) ([2]; individual EAE macaques, 7-day treatment from onset of clinical signs, listed as dex alone): ++
Survival (days of survival post-onset) ([2]; individual EAE macaques, 7-day treatment from onset of clinical signs, stable animals sacrificed at six weeks (42 days), listed as dex alone): 17 days and 1 days (2×) and 2 days and 13 days and 9 days
